In paper PMC4741700 (Oncotarget, 2015):
Where two headings read alike, the source gives them in different places. Each block holds one compound with its values, some of them ahead of it.

Columns and labels:
[1] = system: HL60 promyelocytic leukemia cell line; test: Proliferation inhibition of HL60 cells; format: cell-based; settings: Homo sapiens, HL-60
Experimental: (§1) Cell lines were propagated in RPMI medium or Dulbecco's modified Eagle's minimal essential medium (D-MEM), containing 10% fetal bovine serum, 100 units/mL penicillin G and 100 μg/mL streptomycin. Proliferation and viability assays, cells were performed in 96 well plates in the presence of serial dilutions of compounds. Relative cell numbers and viability were determined 2-4 days later using MTT or CellTiter Glo (Promega, Inc. Madison, WI) assays as previously described.

[2] = system: Daudi Burkitt lymphoma cell line; test: Proliferation inhibition of Daudi cells; format: cell-based; settings: Homo sapiens
Experimental: as §1

[3] = system: human myeloma cell lines; test: Myeloma cell line viability, Cell Titer Glo; format: cell-based; settings: for differential susceptibilities among myeloma cell lines: discounting U266
Experimental: (§2) Figure 6 Susceptibilities of multiple myeloma cell lines and primary explants to SBI compounds A. Cell lines. The indicated human myeloma cell lines were treated with the indicated compounds for 3 days at which point the total viable cell count was determined using the Cell Titer Glo assay method. Shown are the IC50 values that were calculated from standard 10-point dose-response curves (Supplementary Figure 3). B. Primary myeloma explants. Myeloma cells were purified from bone marrow aspirates and maintained in culture for 3 days in the presence of varying concentrations of the indicated compounds [86] IC50 values were calculated from dose-response curves (Supplementary Figure 4).
as §1

[4] = system: NCI-60 cell line collection; test: NCI-60 cell line screen; format: cell-based
[5] = system: primary myeloma explants; test: Primary myeloma explant viability; format: cell-based; settings: for sensitivity of primary myeloma cells: 3 days in culture
Experimental: as §2, §1
Primary myeloma samples were obtained from the Norwegian Myeloma Biobank after obtaining approval from the Regional Ethics Committee.

[6] = system: N-Myc protein in SK-N-BE(2) cells; test: N-Myc protein immunoblot in neuroblastoma cells; format: cell-based, human; settings: within 24 hr
Experimental: As positive and negative controls, respectively, parallel cultures were exposed to 60 μM 10058-F4 (+) or to DMSO vehicle only. B. SK-N-BE(2) cells treated as described in A were fixed and stained with Oil Red O to delineate lipid droplets. C. SK-N-BE(2) cells were exposed to the indicated amounts of Myc inhibitors for 5 days either in the concurrent absence or presence of nerve growth factor (NGF: 50 ng/ml). Typical fields of unfixed cells were then photographed. Note the presence of longer and more numerous neurite outgrowths in cells exposed to Myc inhibitors (arrows).
Immunoblotting was performed as previously described. Antibodies included a mouse mAb against human Myc (1:500 dilution: Clone 9E10, Santa Cruz Biotechnology, Inc. Santa Cruz, CA), a mouse mAb against β−actin (1:10,000 dilution: cat. no.3700S Cell Signaling Technology, Inc. Beverly, MA), a mouse mAb against AMPK (1:1000 dilution: catalog no. 2532, Cell Signaling Technology) and a rabbit polyclonal antibody against AMPK phospho-Thr172 (1:1000 dilution, catalog no.2535, Cell Signaling Technologies).

[7] = target: Myc-Max(S) heterodimers (Homo sapiens, UniProt P01106+P61244); test: EMSA, DNA binding by Myc-Max(S) heterodimers; format: biochemical; settings: for fold more potent than celastrol: EMSA Myc-Max(S)
From the text: B. Formation of a typical Michael adduct with cysteine as an example (depicted in blue) is shown. […] C. […] Recombinant Myc bHLH-ZIP domain (residues 353-437), and full-length Max(S) and Max(L) were used for EMSAs along with a HEX-tagged, double-stranded oligonucleotide containing a Myc binding E-box element (CACGTG). Max(S) is the 151 residue isoform that homodimerizes efficiently but only binds DNA as a heterodimer in association with Myc. The 160 residue isoform, termed Max(L), that does bind DNA as a homodimer and that closely mimics the Myc-Max(S) association was used as a control. D. Graphical representation of EMSA results from triplicate assays performed as described in C.
(§3) The 83 residue His6-tagged Myc bHLH-ZIP domain (amino acids […]), and full-length His6-tagged Max(S) and His6-tagged Max(L) were expressed and purified as previously described. 20 nmol each of Myc and Max(S) or 40 ng of Max(L) were used for EMSA assays that included 30 nmol of a (HEX)-tagged double-stranded E-box-containing oligonucleotide (IDT, Coralville, IA, USA). Importantly, the Myc protein excluded the two C-terminal amino acids (Cys438 and Ala439) from the final sequence, thus eliminating a potential reaction site for quinone methide-containing triterpenoids.

[8] = target: T1, Max(L) homodimers (Homo sapiens, UniProt P61244); test: EMSA, DNA binding by Max(L) homodimers; format: biochemical; settings: recombinant Max(L)
T1 construct: full-length His6-tagged Max(S) and His6-tagged Max(L) were expressed and purified as previously described; His6; made in house
From the text: B. Formation of a typical Michael adduct with cysteine as an example (depicted in blue) is shown. Note that nucleophilic attack by free sulfhydryl-containing molecules occurs at position 6 of the B ring. C. […] Recombinant Myc bHLH-ZIP domain (residues 353-437), and full-length Max(S) and Max(L) were used for EMSAs along with a HEX-tagged, double-stranded oligonucleotide containing a Myc binding E-box element (CACGTG). Max(S) is the 151 residue isoform that homodimerizes efficiently but only binds DNA as a heterodimer in association with Myc. The 160 residue isoform, termed Max(L), that does bind DNA as a homodimer and that closely mimics the Myc-Max(S) association was used as a control. D. Graphical representation of EMSA results from triplicate assays performed as described in C.
as §3

[9] = 3 days, Cell Titer Glo, read-out: mean IC50 over myeloma cell lines
[10] = EMSA, recombinant Myc bHLH-ZIP and Max(S), read-out: IC50, DNA binding by Myc-Max(S) heterodimers

Chain of Myc-Max(S) heterodimers (P01106 368-452 limits assumed): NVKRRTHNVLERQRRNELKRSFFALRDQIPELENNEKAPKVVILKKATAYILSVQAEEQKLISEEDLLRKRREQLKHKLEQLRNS
Chain of Myc-Max(S) heterodimers (P61244 1-151 isoform P61244-2): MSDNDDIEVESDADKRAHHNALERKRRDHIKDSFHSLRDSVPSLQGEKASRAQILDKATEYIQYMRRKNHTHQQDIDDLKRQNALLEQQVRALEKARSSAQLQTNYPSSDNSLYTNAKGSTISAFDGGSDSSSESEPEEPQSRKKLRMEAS
T1 sequence (P61244 whole entry): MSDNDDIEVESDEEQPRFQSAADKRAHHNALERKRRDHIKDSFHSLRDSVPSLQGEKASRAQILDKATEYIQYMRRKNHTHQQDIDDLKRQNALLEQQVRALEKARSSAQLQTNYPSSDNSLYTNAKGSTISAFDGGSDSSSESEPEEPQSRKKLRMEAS

Compound: C=C(C)C1CCC2(C(=O)O)CCC3(C)C(CCC4C5(C)Cc6nccnc6C(C)(C)C5CCC43C)C12 (stereo not shown) [SBI-0061739]
IC50 [1]: 0.82 ± 0.23 µM
IC50 [2]: 3.19 ± 2.28 µM
IC50 ([3]; Homo sapiens, U-266, 72 h, 3 days, U266 excluded, read-out: mean IC50 over myeloma cell lines disregarding U266): 0.42 µM
IC50 ([3]; Homo sapiens, 8 of 9 cell lines, read-out: IC50 in 8 of 9 myeloma cell lines): < 1 µM
IC50 ([4]; 7 of 8 cell lines, read-out: IC50 in renal cancer lines): > 2 µM
IC50 ([4]; 17 cell lines (28%), read-out: IC50 in highly sensitive NCI-60 cell lines): < 2 µM
IC50 ([4]; all 6 lines, read-out: IC50 in ovarian cancer lines): > 2 µM

IC50 [3, 9]: 21.8 µM
Compound: CCc1ccc(C=C2SC(=S)NC2=O)cc1 [10058-F4, [Z,E]-5-[4-ethylbenzylidine]-2-thioxothiazolidin-4-one]
differential susceptibilities among myeloma cell lines [3]: 3-4 fold
sensitivity of primary myeloma cells [5]: the majority were sensitive
N-Myc protein level [6]: declined

Compound: C=C(C)C1CCC2(C(=O)O)CCC3(C)C(CCC4C5(C)Cc6nc7ccccc7nc6C(C)(C)C5CCC43C)C12 (stereo not shown) [SBI-0069272]
fold more potent than celastrol [7]: 4-6 fold
IC50 [7, 10]: 10 to 15 µM
IC50 [1]: 10.8 ± 2.18 µM
IC50 [2]: 14.3 ± 3.2 µM

Compound: CC1(C)CCC2(C(=O)O)CCC3(C)C(=CCC4C5(C)CCC(=O)C(C)(C)C5CCC43C)C2C1 (stereo not shown) [SBI-0640599]
fold more potent than celastrol [7]: 4-6 fold
IC50 [7, 10]: 10 to 15 µM
IC50 [1]: 12 ± 1.28 µM
IC50 [2]: 14.2 ± 3.7 µM

Compound: CC1=C(O)C(=O)C=C2C1=CC=C1[C@@]2(C)CC[C@@]2(C)[C@@H]3C[C@](C)(C(=O)O)CC[C@]3(C)CC[C@]12C [Celastrol, celastrol, reference compound]
IC50 [7]: 67 ± 2 µM
IC50 [8]: > 140 µM
IC50 [1]: 0.46 ± 0.06 µM
IC50 [2]: 0.09 ± 0.02 µM
N-Myc protein level [6]: declined

Compound: Cc1sc2c(c1C)C(c1ccc(Cl)cc1)=N[C@@H](CC(=O)OC(C)(C)C)c1nnc(C)n1-2 [JQ1]
IC50 [3, 9]: 0.25 µM
IC50 ([3]; 3 days, U266 excluded, read-out: mean IC50 over myeloma cell lines disregarding U266): 0.25 µM
fold lower mean IC50 than SBI-0061739 ([3]; U266 excluded): < 2 fold
differential susceptibilities among myeloma cell lines [3]: 20 fold
factor by which JQ1 is more effective than 10058-F4 ([3]; mean IC50s): ~90
sensitivity of primary myeloma cells [5]: resistant
effect against primary myelomas ([5]; even at concentrations exceeding 10-20 μM): virtually without effect

Compound: C=C(C)C1CCC2(C(=O)O)CCC3(C)C(CCC4C5(C)CCC(=O)C(C)(C)C5CCC43C)C12 (stereo not shown) [SBI-0640601]
IC50 [7, 10]: 10 to 15 µM
IC50 [1]: 13.2 ± 1.74 µM
IC50 [2]: 6.36 ± 1.25 µM
